Measurements as given in patent publication US20250205199A1, “5-METHOXY-N,N-[…][…] THE TREATMENT OF SOCIAL/EMOTIONAL […] DETACHMENT” (GH RESEARCH IRELAND LIMITED, priority 2022, published 2025).

Test system: patients with postpartum depression (PPD)
Assay: Clinical trial of inhaled 5-MeO-DMT in postpartum depression (one patient so far)
Procedure: The single-arm, open-label clinical trial will involve 15 adult female patients with clinically diagnosed postpartum depression (PPD).
The second dose (12 mg) will only be administered if: • a. […] The 6 mg dose was safe and well-tolerated according to the investigator, • c. Any psychoactive effects (PsE) of the prior dose have subsided, and • d. Pre-dose vital parameters and forced expiratory volume in one second (FEV1) are in normal range, or if outside of the normal range, are not clinically significant according to the investigator. • 3. Similarly, a third dose (18 mg) will only be administered if: • a. […] The 12 mg dose was safe and well-tolerated according to the investigator, and • c. Any PsE of the prior dose have subsided, and • d. Pre-dose vital parameters and forced expiratory volume in one second (FEV1) are in normal range, or if outside of the normal range, are not clinically significant according to the investigator.
The patients will be assessed for a peak psychedelic experience (based on a patient-scored visual analogue scale, the PE scale), sedation, and other endpoints after dosing. Follow-up visits are planned for Day 1, and Day 7 after the dosing day.
The following criteria must be met by all patients considered for clinical trial participation: • 1. Is female and in the age range between 18 and 45 years (inclusive) at screening. • 2. Has a body mass index (BMI) in the range of 18.5 and 35 kg/m^2 (inclusive) at screening. • 3. Meets the trial criteria for PPD as assessed by a trial psychiatrist or registered psychologist: • a. Diagnosis of Major Depressive Disorder without psychotic features, confirmed by the Mini-International Neuropsychiatric Interview (MINI), with peri-partum onset that began no earlier than gestation and no later than the first 4 weeks postpartum. • b. Has a Montgomery-Åsberg Depression Rating Scale (MADRS) total score of equal to or greater than 28 at screening and pre-dose on Day 0. • 6. […] Patients must have a negative pregnancy test at screening and on the pre-test day (Day −1). • 5. Is willing to delay start of other antidepressant or anxiety medication until after the end of the trial at Day 7 and agrees to keep any psychotherapy unchanged during the trial.
A potential patient who meets any of the following key exclusion criteria will be excluded from participation in this trial: • 1. Has, based on history, psychiatric assessment, and evaluation of the MINI, a current or prior diagnosis of bipolar disorder, a manic or hypomanic episode, a psychotic disorder, Major Depressive Disorder (MDD) or other mood disorder with psychotic features, obsessive compulsive disorder, post-traumatic stress disorder (PTSD), autism spectrum disorder, borderline personality disorder, schizophrenia, delusional disorder, paranoid personality disorder, schizoaffective disorder, clinically significant intellectual disability, or any other psychiatric comorbidity that renders the patient unsuitable for the trial according to the investigator's judgment. • 2. Has one or more first or second degree relatives with a current or previously diagnosed bipolar disorder, psychotic disorder or other mood disorder (including MDD) with psychotic features. • 3. Is in the judgement of a trial psychiatrist or registered psychologist, at significant risk for suicide based on history, psychiatric assessment, and evaluation of suicidal ideation and suicidal behaviour based on the Columbia-Suicide Severity Rating Scale (C-SSRS). • 4. Has taken anti-depressive medication within 14 days or 5 half-lives (whichever is longer) prior to dosing (exception: within the last 5 weeks in the case of fluoxetine). • 5.

## COc1ccc2[nH]cc(CCN(C)C)c2c1 [5-MeO-DMT]
  ECG (3 hours), safety laboratory analyses (7 days), CADSS (3 hours, 1 day, 7 days): unremarkable
  Reported adverse events (cramping left abdominal pain and headache, Day 0): mild, short-lasting and resolved spontaneously
  Tolerability of the inhalation procedure: well tolerated with no inhalation-related adverse events
2 hr, baseline 29
  Total MADRS improvement: 24
  Total MADRS score: 5
Day 1, baseline 6
  BPRS Tension improvement: 5
Day 1, baseline 29
  Total MADRS improvement: 29
  Total MADRS score: 0
Day 7, Day 0 score 3
  BIMF item 16 (I worry about how other people judge me (as a mother)) score: 5
Day 7, Day 0 score 5
  BIMF item 11 (I take a little time each week to do something for myself) score: 6
Day 7, Day 0 score 5, maximum possible 12
  BIMF functional domain Adjustment score: 6
Day 7, Day 0 score 9, maximum possible 18
  BIMF functional domain Self-Care score: 13
Day 7, Day 0 score 12, maximum possible 12
  BIMF functional domain Infant Care score: 12
Day 7, Day 0 score 15, maximum possible 18
  BIMF functional domain Mother-Child Interaction score: 17
Day 7, Day 0 score 17, maximum possible 18
  BIMF functional domain Social Support score: 18
Day 7, Day 0 score 28, maximum possible 36
  BIMF functional domain Management score: 33
Day 7, Day 0 score 44, maximum possible 60
  BIMF functional domain Psychological Well-being score: 53
Day 7, baseline 29
  Total MADRS improvement: 28
  Total MADRS score: 1
Day 7, from 92 to 105 of possible 120
  BIMF total score improvement: 14%
Day 7 vs Day 0
  BIMF TOTAL Δ (Day 7): 13
  BIMF functional domain Adjustment % Improvement: 20.00%
  BIMF functional domain Infant Care % Improvement: 0.00%
  BIMF functional domain Management % Improvement: 18%
  BIMF functional domain Self-Care % Improvement: 44%
Discharge, baseline 6
  BPRS Tension improvement: 5
IDR 6 mg then 12 mg
  Standard criteria for MADRS response (at least 50% improvement) and MADRS remission (total score <=10): fulfilled
  Time to clinical remission after administration: ≤ 2 h
Except temporary, clinically non-relevant increase in heart rate and blood pressure shortly after administration
  Changes in vital parameters: no other noteworthy changes in vital parameters
